Test results taken from US20100016209A1, “Methods of Reducing Side Effects in Cancer Therapy” (priority 2005, published 2010).

What was measured:
patients' immune cells = experiment: Clinical (C): MEK therapy in a group of 19 cancer patients, analysis of patients' immune cells (FACS Calibur); format: in vivo, human; details: for Total NK (CD16+CD56) Natural killer cells, Cells/μl / Total T Cells, Cells/μl / CD4/CD3(CD8) / Total NK (CD16+CD56) Natural killer cells, in percent of total / Total T Cells, in percent of total / Total Lymphocytes (T+B+NK), in percent of total: average of 19 patients; for Total NK (CD16+CD56) Natural killer cells, Cells/μl / Total T Cells, in percent of total: before MEK 61; for Total T Cells, Cells/μl: before MEK 367; for CD4/CD3(CD8): normal 0.9-3.6, before MEK 0.61; for Total NK (CD16+CD56) Natural killer cells, in percent of total: normal 5.6-30.9, before MEK 16; for Total T Cells, in percent of total: normal range 59.5-84.6; for Total Lymphocytes (T+B+NK), in percent of total: normal range 95.0-105.0, before MEK 87
Description: (C) Therapy in group of patients: (1) Total patient number: 19 (2) Cancer category: colon cancer—8; ovary cancer—5; lung cancer—4; salivary gland cancer—1; stomach cancer—1. 12 patients were given MEK 3 weeks after chemotherapy; the other 7 patients were not treated with chemotherapy. (3) Schedule of MEK administration: First week—10˜30 μg/kg, daily IV (total 7 administrations per week); Second week—20˜40 μg/kg, ever other day IV (total 3 administrations per week); Third week—30˜50 μg/kg, once every three days, IV (total 2 administrations per week). (4) Thereafter, one administration each month, 100˜130 μg/kg for 6 months. (5) Observation Indicator: analysis of patients' immune cells. (6) Equipment used: Cytometer—FACS Calibur; Software—Simul Set V3.1. (7) Results (in average values):
In the above data, “after MEK” refers to after the end of MEK treatment.

[1] = test system: white blood cells of kidney cancer patient; experiment: Clinical case (B): chemotherapy with a platinum compound and MEK, white blood cells analyzed by cell sorter; format: in vivo, human; details: A person; for Total T (CD3+), Percent: kidney cancer, normal 59.4-84.6; for Total T (CD3+), Percent / T Helper (CD3+, CD4+), Cell Number/μl / T Suppressor (CD3+, CD8+), Cell Number/μl / Total B (CD19+), Cell Number/μl / Total NK (CD16+/CD56+), Cell Number/μl / Total T (CD3+), Cell Number/μl / Ratio T Helper Cells/ CD3, CD4/CD3, CD8 / Total NK (CD16+/CD56+), Percent / Total B (CD19+), Percent / T Suppressor (CD3+, CD8+), Percent / T Helper (CD3+, CD4+), Percent / Lymphocytes T + B + NK, Percent: platinum compound + MEK; for Ratio T Helper Cells/ CD3, CD4/CD3, CD8: normal 0.9-3.6; for Total NK (CD16+/CD56+), Percent: normal 5.6-40.9; for Total B (CD19+), Percent: normal 6.4-22.6; for T Suppressor (CD3+, CD8+), Percent: normal 11.1-38.3; for T Helper (CD3+, CD4+), Percent: normal 28.5-60.5; for Lymphocytes T + B + NK, Percent: normal 95.0-105.0
Description: (B) A patient was diagnosed with a kidney cancer and was treated with chemotherapy with a platinum compound and MEK for about two months (July and August 2005). […] a person's white blood cells after analyzed by the cell sorter are presented as follows: […]

[2] = test system: patient with metastasized cancer of the "small saliva gland"
Description: (A) A patient of was a physician in the radiation department. They were diagnosed to have cancer of the “small saliva gland” in 1996. After radiation therapy, the tumor was removed by surgery. In 2001 it was discovered that the tumor had metastasized to their left lung and they went through a second surgery in the lung. In December of 2004, the metastasis extended into the chest, diaphragm and bone and multiple sites in the lung. They were treated with regional radiation and “immuno-therapy”. Starting in the middle of December, they were given MEK intravenously (IV) at a dose of 30 μg/kg bodyweight three times per week for one month. In the next month, they were given one administration of MEK each week at 40 μg/kg. Thereafter, one injection was done for each month at 120 μg/kg for the next 5 months.

## Methionine enkephalin [MEK]
patients' immune cells; MEK as supplemental agent with chemo and/or radiation therapies
  side effects among the patients treated: helped to eliminate or reduce the extent of many side effects
patients' immune cells; 1 month after MEK
  Total NK (CD16+CD56) Natural killer cells, Cells/μl: 177 Cells/μl
  Total T Cells, Cells/μl: 655 Cells/μl
  CD4/CD3(CD8): 0
  Total NK (CD16+CD56) Natural killer cells, in percent of total: 22% of total
  Total T Cells, in percent of total: 60% of total
  Total Lymphocytes (T+B+NK), in percent of total: 102% of total
patients' immune cells; 2 months after MEK
  Total NK (CD16+CD56) Natural killer cells, Cells/μl: 189 Cells/μl
  Total T Cells, Cells/μl: 587 Cells/μl
  CD4/CD3(CD8): 1.62
  Total NK (CD16+CD56) Natural killer cells, in percent of total: 21% of total
  Total T Cells, in percent of total: 66% of total
  Total Lymphocytes (T+B+NK), in percent of total: 100% of total
patients' immune cells; 3 months after MEK
  Total NK (CD16+CD56) Natural killer cells, Cells/μl: 306 Cells/μl
  Total T Cells, Cells/μl: 539 Cells/μl
  CD4/CD3(CD8): 1.51
  Total NK (CD16+CD56) Natural killer cells, in percent of total: 29% of total
  Total T Cells, in percent of total: 67% of total
  Total Lymphocytes (T+B+NK), in percent of total: 104% of total
patients' immune cells; 4 months after MEK
  Total NK (CD16+CD56) Natural killer cells, Cells/μl: 349 Cells/μl
  Total T Cells, Cells/μl: 694 Cells/μl
  CD4/CD3(CD8): 1.53
  Total NK (CD16+CD56) Natural killer cells, in percent of total: 26% of total
  Total T Cells, in percent of total: 79% of total
  Total Lymphocytes (T+B+NK), in percent of total: 103% of total
patients' immune cells; 5 months after MEK
  Total NK (CD16+CD56) Natural killer cells, Cells/μl: 368 Cells/μl
  Total T Cells, Cells/μl: 637 Cells/μl
  CD4/CD3(CD8): 1.80
  Total NK (CD16+CD56) Natural killer cells, in percent of total: 25% of total
  Total T Cells, in percent of total: 73% of total
  Total Lymphocytes (T+B+NK), in percent of total: 102% of total
patients' immune cells; 6 months after MEK
  Total NK (CD16+CD56) Natural killer cells, Cells/μl: 359 Cells/μl
  Total T Cells, Cells/μl: 568 Cells/μl
  CD4/CD3(CD8): 1.61
  Total NK (CD16+CD56) Natural killer cells, in percent of total: 27% of total
  Total T Cells, in percent of total: 80% of total
  Total Lymphocytes (T+B+NK), in percent of total: 103% of total
patients' immune cells; cancer patients, MEK in conjunction with chemo and/or radiation therapies, after one month of MEK administration
  CD4/CD3(CD8), NK (CD16+CD56), and total T cells: either were maintained normally or increased
[1]; Aug 12
  Total T (CD3+), Percent: 74%
  T Helper (CD3+, CD4+), Cell Number/μl: 447 Cell Number/μl
  T Suppressor (CD3+, CD8+), Cell Number/μl: 931 Cell Number/μl
  Total B (CD19+), Cell Number/μl: 74 Cell Number/μl
  Total NK (CD16+/CD56+), Cell Number/μl: 447 Cell Number/μl
  Total T (CD3+), Cell Number/μl: 1368 Cell Number/μl
  Ratio T Helper Cells/ CD3, CD4/CD3, CD8: 0.48
  Total NK (CD16+/CD56+), Percent: 24%
  Total B (CD19+), Percent: 4%
  T Suppressor (CD3+, CD8+), Percent: 50%
  T Helper (CD3+, CD4+), Percent: 24%
  Lymphocytes T + B + NK, Percent: 102%
[1]; Jul 14
  Total T (CD3+), Percent: 70%
  T Helper (CD3+, CD4+), Cell Number/μl: 569 Cell Number/μl
  T Suppressor (CD3+, CD8+), Cell Number/μl: 1274 Cell Number/μl
  Total B (CD19+), Cell Number/μl: 54 Cell Number/μl
  Total NK (CD16+/CD56+), Cell Number/μl: 759 Cell Number/μl
  Total T (CD3+), Cell Number/μl: 1897 Cell Number/μl
  Ratio T Helper Cells/ CD3, CD4/CD3, CD8: 0.45
  Total NK (CD16+/CD56+), Percent: 28%
  Total B (CD19+), Percent: 2%
  T Suppressor (CD3+, CD8+), Percent: 47%
  T Helper (CD3+, CD4+), Percent: 21%
  Lymphocytes T + B + NK, Percent: 100%
[1]; platinum compound and MEK for about two months
  Numbers of T cell sub-types: did not decrease but increased instead
[2]; CT and MRI examination
  progress of the tumor: slowed and partially disappeared
[2]; after the therapy
  appetite and sleep: improved
  blood pressure, pulse and liver and stomach functions: normal
[2]; during the influenza epidemic, hospital ward
  influenza infection: not infected
[2]; during therapy with radiation, chemo, and MEK
  side effects in the GI, respiratory, skin, and peripheral circulation systems: no side effects
[2]; during therapy with radiation, chemo, and MEK, MEK IV 30-120 μg/kg
  white blood cell counts and lymphocytes: decreased to some extent
[2]; monitored monthly
  CD3/CD4 sub-group of T lymphocytes: increased
  CD3/CD8 and total CD3 subgroups: decreased
  total numbers of NK cells: increased
